We go through nine molecules from patent publication US20230200424A1, “COMPOSITIONS COMPRISING CYS-PEPTIDES” (Evonik Operations GmbH, priority 2020, published 2023).

Series [1] is described as follows: Solubility of (Ala-Cys)2 and its solubilization by addition of cysteine, turbidity at 600 nm. In kind it is physicochemical. As to the method:
Turbid suspensions of 50 mM (Ala-Cys)2 in phosphate buffer at pH=7 were prepared and increasing amounts of cysteine were added. The mixtures were incubated at 37° C. in a microtiter plate (liquid volume per well was 200 μl) and turbidity at 600 nm was measured after 30 minutes. At concentrations of 20 mM of cysteine and higher, (Ala-Cys)2 was fully solubilized and no further reduction of turbidity was measured. Solutions were visually transparent (see FIG. 2).

The conditions of series [2]: pH range between 3 and 9; cited from earlier work.
Series [3] is described as follows: Stabilization of 25 mM and 50 mM cysteine solutions against precipitation by Cys-dipeptides under oxidizing conditions (H2O2), turbidity at 600 nm. In kind it is physicochemical. The note with it: H2O2 added, after 4.5 hours. The procedure:
(§1) Turbidity caused by precipitation was measured photometrically at 600 nm in a microtiter plate-based assay. Liquid volume per well was 200 μl and measurements were conducted over 24 hours at 37° C. in a microplate reader (Tecan). The plates were not covered with a lid.
(§2) An experiment as described in example 1 was conducted in a microtiter plate. After two hours of incubation at 37° C., 14 μl of a 5 weight % H2O2 solution were added to each well to accelerate oxidation and evaluate stabilization under fully oxidized conditions. […] Turbidity measurements in the microplate reader were continued subsequently. Results are shown in Fehler! Verweisquelle konnte nicht gefunden werden.
To evaluate if the above described stabilization is also possible by addition of other Cys-dipeptides, experiments as described in example 4 were conducted with the exception that reduced cysteine concentrations of 50 mM and 25 mM were used and that the concentrations of added Cys-dipeptides were 0 (=control), 5, 10, 25 and 50 mM. The effect of (Asp-Cys)2, (Cys-Asp)2, (Lys-Cys)2, (Cys-Lys)2, (Ala-Cys)2 and (Pro-Cys)2 was evaluated. All Cys-peptides were able to prevent precipitation from the cysteine solutions after addition of H2O2 Differences in stabilization efficiency were observed between the various Cys-Peptides at cysteine concentrations of 50 mM. The Cys-dipeptides containing lysine residues were the most efficient stabilizers and a molar Cys-peptide to cysteine ratio between 1:2 and 1:5 provided sufficient stability.

Series [4] can be described thus: Stabilization of 50 mM cysteine solution against precipitation by reduced and oxidized Cys-dipeptides under oxidizing conditions (H2O2), turbidity at 600 nm. In kind it is physicochemical. The note with it: H2O2 added; for Turbidity at 600 nm: after 4.5 hours. The procedure:
as §1, §2
To evaluate if the above described stabilization is also possible by addition of reduced Cys-dipeptides (=free thiol), the same experimental setup as described in example 4 was chosen. In this case, various concentrations of the reduced dipeptide Cys-Gly and of the oxidized dipeptide (Cys-Gly)2 were added to a 50 mM cysteine solution. Both Cys-peptides were able to prevent precipitation from the cysteine solutions after addition of H2O2.

Series [5] in a line: Stabilization of a 100 mM cysteine solution against precipitation by (Lys-Cys)2 under oxidizing conditions (H2O2), turbidity. In kind it is physicochemical. The procedure:
as §1, §2
The mixtures were incubated in a microplate for 2 hours at 37° C. and turbidity was measured photometrically. H2O2 was subsequently added to accelerate oxidation and evaluate stability against precipitation under fully oxidized conditions. Turbidity measurement was continued directly after H2O2 addition. With cysteine alone, the solution turned directly and visibly turbid, when H2O2 was added. With increasing amounts of added (Lys-Cys)2, the amount of precipitate measured via turbidity was reduced.

A short description of series [6]: Precipitation from a 100 mM cysteine solution with added (Lys-Cys)2, turbidity at 600 nm in microtiter plate. In kind it is physicochemical. The note with it: 24 hours. The procedure: Solutions of substances and dilutions thereof were prepared in 100 mM phosphate buffer, pH=7 in all experiments in all examples. Precipitation could be avoided in a 100 mM solution of cysteine in a 100 mM phosphate buffer at pH=7 by the addition of suitable concentrations of (Lys-Cys)2.
as §1
When 100 mM solutions of cysteine were prepared with 0, 100, 200 or 400 mM (Lys-Cys)2×2 HCl at pH=7, a surprising result was obtained. Precipitation could be seen and measured in the absence of added peptide. […] The precipitates could be observed visually and measured via turbidimetry (see FIG. 1).

The mark [7] stands for this setting: 25 mM cysteine solution, Cys-peptide 5 mM.
[8] abbreviates: 25 mM cysteine solution, Cys-peptide 10 mM.
Setting [9] is: 25 mM cysteine solution, Cys-peptide 25 mM.
The mark [10] stands for this setting: 25 mM cysteine solution, Cys-peptide 50 mM.
The mark [11] stands for this setting: 50 mM cysteine solution, Cys-peptide 5 mM.
Where [12] appears, read: 50 mM cysteine solution, Cys-peptide 10 mM.
Where [13] appears, read: 50 mM cysteine solution, Cys-peptide 25 mM.
[14] abbreviates: 50 mM cysteine solution, Cys-peptide 50 mM.

Entries after “also recorded” stand apart in the source; their conditions may differ. Like-named read-outs stand apart in the source and are kept apart here. Where a SMILES comes first, the peptide text is derived from it. Bridges are numbered along the chain shown (N, C = ends). Roman numbers before positions name the chains, in order. Bounds are passed on as bounds.

Take `C[C@H](N)C(=O)N[C@@H](CSSC[C@H](NC(=O)[C@H](C)N)C(=O)O)C(=O)O` [(Ala-Cys)2] (I: H-Ala-Cys-OH / II: H-Ala-Cys-OH; disulfide I:2-II:2; N-terminus and C-terminus assumed): the solubility in series [1] (50 mM (Ala-Cys)2 suspension, phosphate buffer pH=7, 37° C., turbidity at 600 nm after 30 minutes, read-out: concentration of cysteine at which 50 mM (Ala-Cys)2 was fully solubilized) is at least 20 mM; in series [1] (pH=7 and 37° C., read-out: maximum solubility), below 50 mM.
Consider `N[C@@H](CSSC[C@H](N)C(=O)O)C(=O)O` [cystine], for which the solubility in series [2] is below 1 mM.
In the case of (Asp-Cys)2, the “Turbidity at 600 nm” value in series [3] (setting [7]) was 0.038 AU; in series [3] (setting [8]), 0.039 AU; in series [3] (setting [9]), 0.038 AU; in series [3] (setting [10]), 0.040 AU; in series [3] (setting [11]) it was 1.453 AU; in series [3] (setting [12]), 1.301 AU. In addition, the “Turbidity at 600 nm” value in series [3] (setting [13]) is reported as 0.039 AU; in series [3] (setting [14]), 0.042 AU.
Regarding (Cys-Asp)2, the “Turbidity at 600 nm” value in series [3] (setting [7]) worked out at 0.081 AU; in series [3] (setting [8]), 0.037 AU; in series [3] (setting [9]), 0.038 AU; in series [3] (setting [10]), 0.040 AU; in series [3] (setting [11]), 1.702 AU; in series [3] (setting [12]) it was 1.523 AU. In addition, the figures for the “Turbidity at 600 nm” value in series [3] (setting [13]) and in series [3] (setting [14]) were 0.279 AU and 0.039 AU, respectively.
With (Cys-Gly)2, the “Turbidity at 600 nm” value in series [4] (Cys-peptide 5 mM) was determined as 1.07 AU; in series [4] (Cys-peptide 10 mM), 0.07 AU; in series [4] (Cys-peptide 25 mM), 0.04 AU; in series [4] (Cys-peptide 50 mM) it was 0.04 AU. Also, in series [4], the “peptide concentration at which precipitation was completely suppressed” value is 25 mM.
In the case of (Cys-Lys)2, the “Turbidity at 600 nm” value in series [3] (setting [7]) worked out at 0.044 AU; in series [3] (setting [8]), 0.050 AU; in series [3] (setting [9]), 0.068 AU; in series [3] (setting [10]) it was 0.084 AU; in series [3] (setting [11]), 0.390 AU; in series [3] (setting [12]), 0.092 AU. For the same molecule, the entries for the “Turbidity at 600 nm” value in series [3] (setting [13]) and in series [3] (setting [14]) were 0.067 AU and 0.077 AU, respectively.
Turning to (Lys-Cys)2, in series [5] (100 mM cysteine with 400 mM (Lys-Cys)2), the “precipitate after H2O2 addition” value is “no precipitate was observed; also recorded: remained completely clear”. Further, the “turbidity directly after addition of H2O2” value in series [5] (100 mM cysteine with (Lys-Cys)2, 2 hours at 37° C., then H2O2) is on record as “no immediate increase in turbidity was observed”. In series [5] (100 mM cysteine, increasing concentrations of (Lys-Cys)2), the “turbidity increase after H2O2 addition” value is listed as “strongly reduced”. The “precipitation (visual, turbidimetry)” value is reported as “accelerated precipitation” in series [6] (100 mM cysteine with 100 mM (Lys-Cys)2, pH=7, 37° C.); “effectively prevented precipitation” in series [6] (100 mM cysteine with 200 mM (Lys-Cys)2, pH=7, 37° C.); “effectively prevented precipitation” in series [6] (100 mM cysteine with 400 mM (Lys-Cys)2, pH=7, 37° C.). In addition, the “Turbidity at 600 nm” value in series [3] (setting [7]) amounted to 0.039 AU; in series [3] (setting [8]), 0.041 AU; in series [3] (setting [9]), 0.042 AU; in series [3] (setting [10]), 0.047 AU; in series [3] (setting [11]) it was 0.946 AU; in series [3] (setting [12]) it was 0.556 AU. Besides, the figures for the “Turbidity at 600 nm” value in series [3] (setting [13]) and in series [3] (setting [14]) were 0.045 AU and 0.047 AU, respectively.
On to (Pro-Cys)2, for which the “Turbidity at 600 nm” value is given as 0.078 AU in series [3] (setting [7]); 0.039 AU in series [3] (setting [8]); 0.040 AU in series [3] (setting [9]); 0.042 AU in series [3] (setting [10]); 1.539 AU in series [3] (setting [11]); 1.379 AU in series [3] (setting [12]). The “Turbidity at 600 nm” value in series [3] (setting [13]) amounted to 0.762 AU; in series [3] (setting [14]), 0.118 AU.
On to Cys-Gly, for which the “Turbidity at 600 nm” value in series [4] (Cys-peptide 5 mM) is recorded as 0.58 AU; in series [4] (Cys-peptide 10 mM) it was 0.37 AU; in series [4] (Cys-peptide 25 mM) it was 0.26 AU; in series [4] (Cys-peptide 50 mM), 0.04 AU. For the same molecule, the “peptide concentration at which precipitation was completely suppressed” value in series [4] is listed as 50 mM.
